These results are taken from patent US6967196B1, “Sulfonamide compounds and uses thereof” (Bristol-Myers Squibb Company, priority 1999, dated 2005).

Counter-ions that a name gives are not always drawn.

For one assay, the system named is amyloid β production in transfected H4 (human neuroglioma) cells stably expressing APP constructs. The experiment in a line: In vitro cell-based assay of inhibitors of amyloid β production (ELISA). Particulars: Homo sapiens, 16 h, transfected H4 cells stably expressing APP constructs; approximately 16 hours incubation; amyloid β in medium by ELISA; read-out: ACTIVITY (IC50, inhibition of amyloid β production). The method, boiled down:
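Aβ secreted into the medium was determined by a two-antibody ELISA specific for the Aβ C-terminus, calibrated with known Aβ amounts. Before that, compounds (10-100 μM initially) were left on the cells for roughly 16 hours.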
(In general: An ELISA detects its analyte on a solid surface through an enzyme-linked reagent.)
The term IC50 denotes the concentration at which inhibition is half-maximal. With `CN(C)CCCOc1ccccc1CN(c1ccccc1)S(=O)(=O)c1ccc([N+](=O)[O-])cc1` [Example 1083, N-{2-[3-(dimethylamino)propoxy]benzyl}-4-nitro-N-phenylbenzenesulfonamide], the half-inhibitory concentration (IC50) is greater than 10 µM.
On the same count and under the same terms, in the case of `CN(C)CCCOc1ccccc1CN(c1ccccc1)S(=O)(=O)c1ccccc1[N+](=O)[O-]` [Example 1084, N-{2-[3-(dimethylamino)propoxy]benzyl}-2-nitro-N-phenylbenzenesulfonamide] it was greater than 10 µM; in that of `CN(C)CCCOc1ccccc1CN(c1ccccc1)S(=O)(=O)c1cccc2c(N(C)C)cccc12` [Example 1085, 5-(dimethylamino)-N-{2-[3-(dimethylamino)propoxy]benzyl}-N-phenyl-1-naphthalenesulfonamide], greater than 10 µM.
With `CC(C)(O)C#Cc1ccccc1CN(c1ccccc1)S(=O)(=O)c1ccc(Cl)cc1` [Example 1086, 4-chloro-N-[2-(3-hydroxy-3-methyl-1-butynyl)benzyl]-N-phenylbenzenesulfonamide], the IC50 was greater than 10 µM.

Staying with this assay, now noted: Homo sapiens, 16 h, transfected H4 cells stably expressing APP; approximately 16 hours incubation; amyloid β in medium by ELISA; read-out: ACTIVITY (IC50, inhibition of amyloid β production).
`O=S(=O)(c1ccc(Cl)cc1)n1c(-c2ccccc2OCCCN2CCCCC2)c(Cl)c2ccccc21` [Example 1043, 3-chloro-1-[(4-chlorophenyl)sulfonyl]-2-{2-[3-(1-piperidinyl)propoxy]phenyl}-1H-indole trifluoroacetate]: the IC50 is greater than 0.5 µM.
Turning to `C[C@H](c1ccccc1OCCCBr)N(c1cc(F)ccc1F)S(=O)(=O)c1ccc(Cl)cc1` [Example 1045, N-{(1R)-1-[2-(3-bromopropoxy)phenyl]ethyl}-4-chloro-N-(2,5-difluorophenyl)benzenesulfonamide], the IC50 was greater than 0.5 µM.
As to `CC(c1ccccc1OCCCn1ccnc1)N(c1cc(F)ccc1F)S(=O)(=O)c1ccc(Cl)cc1` (centres unmarked) [Example 1046, 4-chloro-N-(2,5-difluorophenyl)-N-(1-{2-[3-(1H-imidazol-1-yl)propoxy]phenyl}ethyl)benzenesulfonamide hydrochloride], the IC50 is greater than 0.5 µM.
`O=S(=O)(c1ccc(Cl)cc1)N(Cc1ccccc1C#CCn1ccnc1)c1cc(F)ccc1F` [Example 1051, 4-chloro-N-(2,5-difluorophenyl)-N-{2-[3-(1H-imidazol-1-yl)-1-propynyl]benzyl}benzenesulfonamide hydrochloride]: the half-maximal inhibitory concentration (IC50) is greater than 0.5 µM.
As to `CC(c1ccccc1O)N(c1cc(F)ccc1F)S(=O)(=O)c1ccc(Cl)cc1` (centres unmarked) [Example 1052, 4-chloro-N-(2,5-difluorophenyl)-N-[1-(2-hydroxyphenyl)ethyl]benzenesulfonamide], the concentration for half-maximal inhibition (IC50) was greater than 0.5 µM.
Take `O=S(=O)(c1ccc(Cl)cc1)N(Cc1ccccc1O)c1cc(F)ccc1F` [Example 1054, 4-chloro-N-(2,5-difluorophenyl)-N-(2-hydroxybenzyl)benzenesulfonamide]: the IC50 is greater than 0.5 µM.
The same measure, in the same setting: in the case of `C[C@H](c1ccccc1CCO)N(c1cc(F)ccc1F)S(=O)(=O)c1ccc(Cl)cc1` [Example 1055, 4-chloro-N-(2,5-difluorophenyl)-N-{(1R)-1-[2-(2-hydroxyethyl)phenyl]ethyl}benzenesulfonamide] it was greater than 0.5 µM; in that of `C[C@H](c1ccccc1CCCn1ccnc1)N(c1cc(F)ccc1F)S(=O)(=O)c1ccc(Cl)cc1` [Example 1056, 4-chloro-N-(2,5-difluorophenyl)-N-((1R)-1-{2-[3-(1H-imidazol-1-yl)propyl]phenyl}ethyl)benzenesulfonamide hydrochloride], greater than 0.5 µM.
The same measure, in the same setting: in the case of `C[C@H](c1ccccc1OCCCN(C)C(=O)C(C)(C)C)N(c1cc(F)ccc1F)S(=O)(=O)c1ccc(Cl)cc1` [Example 1059, N-{3-[2-((1R)-1-{[(4-chlorophenyl)sulfonyl]-2,5-difluoroanilino}ethyl)phenoxy]propyl}-N,2,2-trimethylpropanamide] it was greater than 0.5 µM; in that of `C[C@H](c1ccccc1OCCCN1CCCCC1)N(c1cc(F)ccc1F)S(=O)(=O)c1ccc(Cl)cc1` [Example 1061, 4-chloro-N-(2,5-difluorophenyl)-N-((1R)-1-{2-[3-(1-piperidinyl)propoxy]phenyl}ethyl)benzenesulfonamide hydrochloride], greater than 0.5 µM.
Consider `C[C@H](c1ccccc1OCCCN1CCCCC1)N(c1cc(Cl)ccc1CO)S(=O)(=O)c1ccc(Cl)cc1` [Example 1062, 4-chloro-N-[5-chloro-2-(hydroxymethyl)phenyl]-N-((1R)-1-{2-[3-(1-piperidinyl)propoxy]phenyl}ethyl)benzenesulfonamide hydrochloride], for which the IC50 is greater than 0.5 µM.
Turning to `C[C@H](c1ccc(F)cc1CCCO)N(c1cc(F)ccc1F)S(=O)(=O)c1ccc(Cl)cc1` [Example 1063, 4-chloro-N-(2,5-difluorophenyl)-N-((1R)-1-[4-fluoro-2-(3-hydroxypropyl)phenyl]ethyl}benzenesulfonamide], the IC50 is greater than 0.5 µM.
Same read-out and setting: in the case of `C[C@H](c1ccccc1CCCn1cncn1)N(c1cc(F)ccc1F)S(=O)(=O)c1ccc(Cl)cc1` [Example 1066, 4-chloro-N-(2,5-difluorophenyl)-N-((1R)-1-{2-[3-(1H-1,2,4-triazol-1-yl)propyl]phenyl}ethyl)benzenesulfonamide] it was greater than 0.5 µM; in that of `C[C@H](c1ccc(F)cc1CCCC(=O)NN(C)C)N(c1cc(F)ccc1F)S(=O)(=O)c1ccc(Cl)cc1` [Example 1078, 4-chloro-N-(2,5-difluorophenyl)-N-((1R)-1-{2-[4-(2,2-dimethylhydrazino)-4-oxobutyl]-4-fluorophenyl}ethyl)benzenesulfonamide], greater than 0.5 µM.
On the same count and under the same terms, for `O=S(=O)(c1ccc(Cl)cc1)N(Cc1ccccc1O)c1ccccc1` [Example 1081, 4-chloro-N-(2-hydroxybenzyl)-N-phenylbenzenesulfonamide] the value was greater than 10 µM; for `CN(C)CCCOc1ccccc1CN(c1ccccc1)S(C)(=O)=O` [Example 1082, N-{2-[3-(dimethylamino)propoxy]benzyl}-N-phenylmethanesulfonamide], greater than 10 µM.

Staying with this assay, now noted: transfected H4 cells stably expressing APP; approximately 16 hours incubation; amyloid β in medium by ELISA; hydrochloride; read-out: ACTIVITY (IC50, inhibition of amyloid β production).
For the compound `C[C@@H](c1ccccc1OCCCn1ccnc1)N(c1cc(F)ccc1F)S(=O)(=O)c1ccc(Cl)cc1` [Example 1048, 4-chloro-N-(2,5-difluorophenyl)-N-((1S)-1-{2-[3-(1H-imidazol-1-yl)propoxy]phenyl}ethyl)benzenesulfonamide hydrochloride], the IC50 was greater than 0.5 µM.

Still in this assay, the particulars now being: transfected H4 cells stably expressing APP; approximately 16 hours incubation; amyloid β in medium by ELISA; read-out: ACTIVITY (IC50, inhibition of amyloid β production).
Regarding `CC(c1ccccc1OCCCn1ccnc1)N(c1cc(F)ccc1F)S(=O)(=O)c1ccc(Cl)cc1` (centres unmarked) [Example 1047, 4-chloro-N-(2,5-difluorophenyl)-N-(1-{2-[3-(1H-imidazol-1-yl)propoxy]phenyl}ethyl)benzenesulfonamide], the half-inhibitory concentration (IC50) is greater than 0.5 µM.
With `O=S(=O)(c1ccc(Cl)cc1)N(Cc1ccccc1OCC[S+]([O-])C1CCCCC1)c1cc(F)ccc1F` (centres unmarked) [Example 1050, 4-chloro-N-{2-[2-(cyclohexylsulfinyl)ethoxy]benzy}-N-(2,5-difluorophenyl)benzenesulfonamide], the IC50 was greater than 0.5 µM.
On to `C[C@H](c1ccc(F)cc1CCCC(=O)O)N(c1cc(F)ccc1F)S(=O)(=O)c1ccc(Cl)cc1` [Example 1067, 4-[2-((1R)-1-{[(4-chlorophenyl)sulfonyl]-2,5-difluoroanilino}ethyl)-5-fluorophenyl]butanoic acid], for which the IC50 is greater than 0.5 µM.
Turning to `C[C@H](c1ccc(F)cc1CCCC(=O)O)N(c1cc(F)ccc1F)S(=O)(=O)c1ccc(Cl)cc1` [Example 1068, 4-[2-((1R)-1-{[(4-chlorophenyl)sulfonyl]-2,5-difluoroanilino}ethyl)-5-fluorophenyl]butanoic acid], the IC50 is greater than 0.5 µM.
Turning to `C[C@H](c1ccc(F)cc1CCCC(=O)O)N(c1cc(F)ccc1F)S(=O)(=O)c1ccc(Cl)cc1` [Example 1069, 4-[2-((1R)-1-{[(4-chlorophenyl)sulfonyl]-2,5-difluoroanilino}ethyl)-5-fluorophenyl]butanoic acid], the half-inhibitory concentration (IC50) is greater than 0.5 µM.
On to `C[C@H](c1ccc(F)cc1CCCCS(=O)(=O)N1CCS(=O)(=O)CC1)N(c1cc(F)ccc1F)S(=O)(=O)c1ccc(Cl)cc1` [Example 1071], for which the IC50 was greater than 0.5 µM.
As to `C[C@H](c1ccc(F)cc1CCCC(=O)O)N(c1cc(F)ccc1F)S(=O)(=O)c1ccc(Cl)cc1` [Example 1072, 4-[2-((1R)-1-{[(4-chlorophenyl)sulfonyl]-2,5-difluoroanilino}ethyl)-5-fluorophenyl]butanoic acid], the 50% inhibitory concentration (IC50) is greater than 0.5 µM.
Still for that read-out and setting: for `C[C@H](c1ccc(F)cc1CCCC(=O)O)N(c1cc(F)ccc1F)S(=O)(=O)c1ccc(Cl)cc1` [Example 1073, 4-[2-((1R)-1-{[(4-chlorophenyl)sulfonyl]-2,5-difluoroanilino}ethyl)-5-fluorophenyl]butanoic acid] the value was greater than 0.5 µM.
Consider `C[C@H](c1ccc(CCCCNS(C)(=O)=O)cc1)N(c1cc(F)ccc1F)S(=O)(=O)c1ccc(Cl)cc1` [Example 1074], for which the IC50 is greater than 0.5 µM.
Take `C[C@@H](c1ccc(F)cc1CCCC(=O)O)N(c1cc(F)ccc1F)S(=O)(=O)c1ccc(Cl)cc1` [Example 1076, 4-[2-((1S)-1-{[(4-chlorophenyl)sulfonyl]-2,5-difluoroanilino}ethyl)-5-fluorophenyl]butanoic acid]: the IC50 is greater than 0.5 µM.
For `C[C@H](c1ccc(F)cc1CCCC(=O)O)N(c1cc(F)ccc1F)S(=O)(=O)c1ccc(Cl)cc1` [Example 1080, 4-[2-((1R)-1-{[(4-chlorophenyl)sulfonyl]-2,5-difluoroanilino}ethyl)-5-fluorophenyl]butanoic acid], the IC50 is greater than 0.5 µM.
